From patent publication US20230123601A1, “PHARMACEUTICAL COMBINATION OF ANTIVIRAL AGENTS TARGETING HBV AND/OR AN IMMUNE MODULATOR FOR TREATMENT OF HBV” (priority 2019, published 2023)

Tested on: HBV
Experiment: HBsAg levels in serum of AAV/HBV mice (CLIA)
Format: in vivo, C57BL/6 mice
Parameters: HBsAg levels in serum (Average ± SD): scale not given here
Excerpt: The AAV-HBV mouse model is generated by injecting C57BL/6 mice with recombinant adeno-associated virus harboring a replicable HBV genome (AAV-HBV). The rAAV8-1.3 HBV ayw virus stock was purchased from Beijing FivePlus Molecular Medicine Institute (Beijing, China). The animals (male, aged 4-5 weeks upon arrival) were purchased from SLAC Laboratory Animal Co. Ltd (Shanghai, China), acclimatized in the animal facility for 5-7 days, and then injected with 1×10^11 vector genome of AAV-HBV (diluted in 200 μL of PBS) through the tail vein. Persistence expression of HBV genome can be established after three weeks, with high levels of HBV viral markers including HBV DNA, HBsAg, and HBeAg in mouse serum. With stable HBV viremia and competent immune system of the C57BL/6 mice, the AAV-HBV mouse model was used to evaluate the in vivo anti-HBV efficacy of the compounds. The in-life part of the AAV-HBV study was conducted through contracted service at Covance Pharmaceutical Research and Development (Shanghai) Co. Ltd. (Covance Shanghai) and the post-life analysis using the serum was performed internally at Roche Innovation Center Shanghai (RICS).
Seven days before compound treatment, blood samples were collected for serum preparation (˜15 μL), and based on HBV DNA, HBsAg levels in serum and body weight, the AAV-HBV infected animals were stratified into the different treatment groups.
Saline (Group 01) and anti-HBV ASO of CMP ID NO: 15_1 at 1.5 or 7.5 mg/kg were dosed sub subcutaneously once a week during Day 0-49 on Days 0, 7, 14, 21, 28, 35, 42 and 49. TLR7 agonist of CMP ID NO: VI 100 mg/kg was administered by oral gavage once every other day during Day 0-55 (QOD) or once weekly during Day 0-49 on Days 0, 7, 14, 21, 28, 35, 42 and 49 (QW). The animals were weekly bled via retro-orbital sinus for sample collection throughout the study.
Serum HBsAg levels were determined in the serum of infected AAV-HBV mouse using the HBsAg chemoluminescence immunoassay (CLIA) (Autobio diagnostics Co. Ltd., Zhengzhou, China, Cat. no. CL0310-2), according to the manufacturer's protocol. Briefly, 50 μl of serum was transferred to the antibody coated microtiter plate and 50 μl of enzyme conjugate reagent was added. The plate was incubated for 60 min on a shaker at room temperature before all wells were washed six times with washing buffer using an automatic washer. 25 μl of substrate A and then 25 μl of substrate B was added to each well. The plate was incubated for 10 min at RT before luminescence was measured using an Envision luminescence reader (Perkin Elmer). HBsAg is given in the unit IU/ml; where 1 ng HBsAg=1.14 IU.
To evaluate the combination of the anti-HBV ASO and the TLR7 agonist in an in vivo system, a mouse model of chronic HBV infection was used. In the AAV/HBV mouse model described in the Materials and Method a persistent HBV infection is established resulting in expression of viral markers (HBsAg, HBeAg, HBV DNA) detectable in plasma. The effect on these viral markers upon treatment with the anti-HBV ASO of CMP ID NO: 15_1 (table 2, and FIG. 4) dosed at 1.5 mg/kg or 7.5 mg/kg and the TLR7 agonist of CMP ID NO: VI (table 3) dosed with […] every other day (QOD) or once weekly (QW) in monotherapy or in combination has been evaluated.

CC[C@H](OC(C)=O)[C@@H]1C[C@@H](O)[C@H](n2c(=O)sc3cnc(N)nc32)O1 [CMP ID NO: VI, [(1S)-1-[(2S,4R,5R)-5-(5-amino-2-oxo-thiazolo[4,5-d]pyrimidin-3-yl)-4-hydroxy-tetrahydrofuran-2-yl]propyl] acetate]
HBsAg levels in serum (Average ± SD) (D56, 15_1 7.5 mg/kg weekly, VI 100 mg/kg QW, or combination of both): 2.13 ± 1.00 | HBsAg levels in serum (Average ± SD) (D63, 15_1 1.5 mg/kg weekly, VI 100 mg/kg QOD, or combination of both): 1.61 ± 0.96 | HBsAg levels in serum (Average ± SD) (D63, 15_1 1.5 mg/kg weekly, VI 100 mg/kg QW, or combination of both): 2.43 ± 1.14 | HBsAg levels in serum (Average ± SD) (D63, 15_1 7.5 mg/kg weekly, VI 100 mg/kg QOD, or combination of both): 1.61 ± 0.96 | HBsAg levels in serum (Average ± SD) (D63, 15_1 7.5 mg/kg weekly, VI 100 mg/kg QW, or combination of both): 2.43 ± 1.14 | HBsAg levels in serum (Average ± SD) (D70, 15_1 1.5 mg/kg weekly, VI 100 mg/kg QOD, or combination of both): 1.9 ± 1.23 | HBsAg levels in serum (Average ± SD) (D70, 15_1 1.5 mg/kg weekly, VI 100 mg/kg QW, or combination of both): 2.48 ± 1.23 | HBsAg levels in serum (Average ± SD) (D70, 15_1 7.5 mg/kg weekly, VI 100 mg/kg QOD, or combination of both): 1.90 ± 1.23 | HBsAg levels in serum (Average ± SD) (D70, 15_1 7.5 mg/kg weekly, VI 100 mg/kg QW, or combination of both): 2.48 ± 1.23 | HBsAg levels in serum (Average ± SD) (D77, 15_1 1.5 mg/kg weekly, VI 100 mg/kg QOD, or combination of both): 1.91 ± 1.18 | HBsAg levels in serum (Average ± SD) (D77, 15_1 1.5 mg/kg weekly, VI 100 mg/kg QW, or combination of both): 2.41 ± 1.16 | HBsAg levels in serum (Average ± SD) (D77, 15_1 7.5 mg/kg weekly, VI 100 mg/kg QOD, or combination of both): 1.91 ± 1.18 | HBsAg levels in serum (Average ± SD) (D77, 15_1 7.5 mg/kg weekly, VI 100 mg/kg QW, or combination of both): 2.41 ± 1.16 | HBsAg levels in serum (Average ± SD) (D84, 15_1 1.5 mg/kg weekly, VI 100 mg/kg QOD, or combination of both): 2.25 ± 1.16 | HBsAg levels in serum (Average ± SD) (D84, 15_1 1.5 mg/kg weekly, VI 100 mg/kg QW, or combination of both): 2.66 ± 1.15 | HBsAg levels in serum (Average ± SD) (D84, 15_1 7.5 mg/kg weekly, VI 100 mg/kg QOD, or combination of both): 2.25 ± 1.16 | HBsAg levels in serum (Average ± SD) (D84, 15_1 7.5 mg/kg weekly, VI 100 mg/kg QW, or combination of both): 2.66 ± 1.15 | HBsAg levels in serum (Average ± SD) (D91, 15_1 1.5 mg/kg weekly, VI 100 mg/kg QOD, or combination of both): 2.05 ± 1.35 | HBsAg levels in serum (Average ± SD) (D91, 15_1 1.5 mg/kg weekly, VI 100 mg/kg QW, or combination of both): 2.66 ± 1.44 | HBsAg levels in serum (Average ± SD) (D91, 15_1 7.5 mg/kg weekly, VI 100 mg/kg QOD, or combination of both): 2.05 ± 1.35 | HBsAg levels in serum (Average ± SD) (D91, 15_1 7.5 mg/kg weekly, VI 100 mg/kg QW, or combination of both): 2.66 ± 1.44 | HBsAg levels in serum (Average ± SD) (D98, 15_1 1.5 mg/kg weekly, VI 100 mg/kg QOD, or combination of both): 2.36 ± 1.26 | HBsAg levels in serum (Average ± SD) (D98, 15_1 1.5 mg/kg weekly, VI 100 mg/kg QW, or combination of both): 2.83 ± 1.16 | HBsAg levels in serum (Average ± SD) (D98, 15_1 7.5 mg/kg weekly, VI 100 mg/kg QOD, or combination of both): 2.36 ± 1.26 | HBsAg levels in serum (Average ± SD) (D98, 15_1 7.5 mg/kg weekly, VI 100 mg/kg QW, or combination of both): 2.83 ± 1.16 | HBsAg levels in serum (Average ± SD) (D105, 15_1 1.5 mg/kg weekly, VI 100 mg/kg QOD, or combination of both): 2.41 ± 1.18 | HBsAg levels in serum (Average ± SD) (D105, 15_1 1.5 mg/kg weekly, VI 100 mg/kg QW, or combination of both): 2.81 ± 1.1 | HBsAg levels in serum (Average ± SD) (D105, 15_1 7.5 mg/kg weekly, VI 100 mg/kg QOD, or combination of both): 2.41 ± 1.18 | HBsAg levels in serum (Average ± SD) (D105, 15_1 7.5 mg/kg weekly, VI 100 mg/kg QW, or combination of both): 2.81 ± 1.10 | HBsAg levels in serum (Average ± SD) (D111, 15_1 1.5 mg/kg weekly, VI 100 mg/kg QOD, or combination of both): 2.69 ± 1.38 | HBsAg levels in serum (Average ± SD) (D111, 15_1 1.5 mg/kg weekly, VI 100 mg/kg QW, or combination of both): 3.1 ± 1.12 | HBsAg levels in serum (Average ± SD) (D111, 15_1 7.5 mg/kg weekly, VI 100 mg/kg QOD, or combination of both): 2.69 ± 1.38 | HBsAg levels in serum (Average ± SD) (D111, 15_1 7.5 mg/kg weekly, VI 100 mg/kg QW, or combination of both): 3.10 ± 1.12 | initial rate of reduction in HBsAg (TLR7 agonist alone, FIG. 10A): slow initial rate of reduction in HBsAg | time of lowest HBsAg (TLR7 agonist alone, FIG. 10A (100 mg/kg QOD)): 42 days | suppression of HBsAg (TLR7 agonist at any of the doses): not capable of suppressing HBsAg to a level below the detection limit
